Source: EP0819121B1, “TRICYCLIC COMPOUNDS USEFUL FOR INHIBITION OF G-PROTEIN FUNCTION AND FOR TREATMENT OF PROLIFERATIVE DISEASES” (SCHERING CORPORATION, priority 1995, dated 1996)
pIC50: −log10 of the molar value. Read-outs that look alike come from different tables or passages of the source.

Experiments:
Normal Cells = test: Cell Mat assay, cell growth inhibition, normal cells (methods of WO 95/10516); type: cell-based; conditions: for pIC50: read-out: Cell Growth Inhibition MAT Assay Normal Cells IC50
Protocol: (§1) In some assays, FPT IC50 (inhibition of farnesyl protein transferase, in vitro enzyme assay) is determined by the methods described in WO 95/10516. COS Cell IC50 (Cell-Based Assay) and Cell Mat assay are determined by the methods described in WO 95/10516. GGPT IC50 (geranylgeranyl protein transferase, in vitro enzyme assay) and in vitro tumor activity can be determined by the methods disclosed in WO 95/10516.

Tumor Cells = test: Cell Mat assay, cell growth inhibition, tumor cells (methods of WO 95/10516); type: cell-based; conditions: for pIC50: read-out: Cell Growth Inhibition MAT Assay Tumor Cells IC50
Protocol: as §1

[1] = molecular target: farnesyl protein transferase (Homo sapiens, UniProt P49354+P49356); test: FPT inhibition, in vitro enzyme assay (SPA, transfer of [3H]farnesyl to biotinylated Ras-peptide; or methods of WO 95/10516); type: biochemical; conditions: values given as ranges
Protocol: as §1
In some assays, the inhibition of famesyi protein transferase was assayed by measuring the transfer of [^3H]farnesyl from [^3H]famesylpyrophosphate to biotinylated Ras-peptide (biotin-KKSKTKCVIM) using the conditions described below for each 96-well plate to be tested.
An assay buffer is prepared consisting of 40 mM Hepes, pH 7.5; 5 mM dithiothreitol; 20 mM magnesium chloride and 0.01 (v/v)% Igepal nonionic detergent.
A SPA (scintillation proximity assay) bead suspension is prepared consisting of 50 mg of Streptavidin SPA beads (Amersham Life-Science) suspended in 2.5 mL of PBS (phosphate buffered saline). Immediately prior to running the assay a stop solution is prepared consisting of 480 µL of the SPA bead suspension mixed with 6720 µL of a solution consisting of 250 mM EDTA (pH 8.0) and 0.5% Bovine Serium Albumin (Fraction V, 96-99% albumin).
(§2) In some assays, to determine FPT IC50, an assay mixture is prepared consisting of 480 µL of assay buffer and 3052.8 µL of water. This mixture is vortexed to homogeneity and 48 µL of the Ras peptide is added. The mixture is vortexed and 15.36 µL of FPP and 3.84 µL of [^3H]FPP are added and the mixture vortexed again. 37.5 µL of this assay mixture and 2.5µL of a DMSO solution (at test concentration) of the compound being tested are then added to each well of a Costar polypropylene U-bottom microtiter plate. The plate is sonicated for 15 minutes at 37°C and then shaken for 15 minutes on a plate shaker. 10 µL of the enzyme (recombinant Human farnesyl protein transferase) is added to each well using a Beckman Biomek 2000. The plate is incubated at room temperature for 20 minutes and then quenched with 75 µL of the stop solution. 100 µL of the quenched reaction mixture from each well is then transferred to a Wallac crosstalk-free microtiter plate using a Beckman Biomek 2000. Radioactivity is measured in a Wallac 1450 Microbeta plus liquid scintillation counter. Percent inhibition is calculated relative to an uninhibited control.
as §2, with “farnesyl transferase inhibition,” for “FPT IC50,”, “buffer,” for “buffer and”, “water and 240 µL of DMSO.” for “water.”, “40” for “37.5”, “is” for “and 2.5µL of a DMSO solution (at test concentration) of the compound being tested are”, “plate, each well of which contains a dry sample of the compound being tested.” for “plate.”

COS Cells = test: COS cell assay, inhibition of RAS processing (cell-based, methods of WO 95/10516); conditions: for IC50: read-out: Activity in COS Cells Inhibition of RAS Processing IC50 in µM; for pIC50: read-out: Activity in COS Cells Inhibition of RAS Processing IC50
Protocol: as §1

Structure (SMILES) | FPT Inhibition IC50 [1] | other results
CCCC[C@H]1CN(C2c3ccc(Cl)cc3CCc3cc(Br)cnc32)CCN1C(=O)Cc1cc[n+]([O-])cc1 (some centres unmarked) [EX 36] | 10 to 10000 nM | IC50 (Normal Cells; read-out: Cell Growth Inhibition MAT Assay Normal Cells IC50 in µM): > 25 µM; IC50 (Tumor Cells; read-out: Cell Growth Inhibition MAT Assay Tumor Cells IC50 in µM): 1.6 µM; IC50 (COS Cells): 0.01 to 10 µM
CN(Cc1ccccc1[N+](=O)[O-])C(=O)C1CN(C2c3ccc(Cl)cc3CCc3cc(Br)cnc32)CCN1C(=O)Cc1cccnc1 (centres unmarked) [EX 48] |  | pIC50 [1]: 4.00 to 5.00
O=C(CC1CN(C2c3ccc(Cl)cc3CCc3cc(Br)cnc32)CCN1C(=O)Cc1ccncc1)NC1CC1 (centres unmarked) [EX 54] | 10 to 10000 nM | 
N[C@@H](CS)CN1CCN(C2c3ccc(Cl)cc3CCc3cc(Br)cnc32)CC1 (some centres unmarked) [EX1] |  | pIC50 [1]: < 4.00
CC(C)NC(=O)C1CN(C2c3ccc(Cl)cc3CCc3cc(Br)cnc32)CCN1C(=O)Cc1cccnc1 (centres unmarked) [EX 32-B] | 10 to 10000 nM | 
CC(C)NC(=O)CC1CN(C2c3ccc(Cl)cc3CCc3cc(Br)cnc32)CCN1C(=O)Cc1cccnc1 (centres unmarked) [EX 34] | 10 to 10000 nM | 
CNC(=O)C1CN(C2c3ccc(Cl)cc3CCc3cc(Br)cnc32)CCN1C(=O)Cc1ccncc1 (centres unmarked) [EX 55] | 10 to 10000 nM | 
CCCCNC(=O)C1CN(C2c3ccc(Cl)cc3CCc3cc(Br)cnc32)CCN1C(=O)OC1CCN(C(C)=O)CC1 (centres unmarked) [EX 44] | 10 to 10000 nM | 
CC(C)N(C)C(=O)C1CN(C2c3ccc(Cl)cc3CCc3cc(Br)cnc32)CCN1C(=O)Cc1ccncc1 (centres unmarked) [EX 56] | 10 to 10000 nM | 
O=C(NC1CC1)C1CN(C2c3ccc(Cl)cc3CCc3cc(Br)cnc32)CCN1C(=O)Cc1ccncc1 (centres unmarked) [EX 47] | 10 to 10000 nM | 
CNC(=O)CC1CN(C2c3ccc(Cl)cc3CCc3cc(Br)cnc32)CCN1C(=O)Cc1ccncc1 (centres unmarked) [EX 51] | 10 to 10000 nM | 
COCC[C@H]1CN(C2c3ccc(Cl)cc3CCc3cc(Br)cnc32)CCN1C(=O)CC1CCNCC1 (some centres unmarked) [EX 39, Step B] | 10 to 10000 nM | 
CCCCNC(=O)C1CN(C2c3ccc(Cl)cc3CCc3cc(Br)cnc32)CCN1C(=O)CC1CCN(C(N)=O)CC1 (centres unmarked) [EX 41] | 10 to 10000 nM | 
O=C(NCc1cccnc1)C1CN(C2c3ccc(Cl)cc3CCc3cc(Br)cnc32)CCN1C(=O)CCc1ccccc1 (centres unmarked) [EX 43] | 10 to 10000 nM | 
CCOC(=O)C1CN(C2c3ccc(Cl)cc3CCc3cc(Br)cnc32)CCN1C(=O)Cc1cccnc1 (centres unmarked) [EX 33] | 10 to 10000 nM | 
CCCC[C@H]1CN(C2c3ccc(Cl)cc3CCc3cc(Br)cnc32)CCN1C(=O)CC1CCN(C(N)=O)CC1 (some centres unmarked) [EX 37, Step C] | 10 to 10000 nM | pIC50 (Normal Cells): 4.74; pIC50 (Tumor Cells): 5.51; pIC50 (COS Cells): 5.00 to 8.00
COc1ccc(CSC[C@H](N)C(=O)N2CCC(=C3c4ccc(Cl)cc4CCc4cccnc43)CC2)cc1 [EX 31] | 10 to 10000 nM | pIC50 (Normal Cells): 4.74; pIC50 (Tumor Cells): 4.90
COc1ccc(CSC[C@H](NC(=O)OC(C)(C)C)C(=O)N2CCC(=C3c4ccc(Cl)cc4CCc4cccnc43)CC2)cc1 [EX 30] | 10 to 10000 nM | pIC50 (Normal Cells): < 4.30; pIC50 (Tumor Cells): < 4.30
N[C@@H](CS)C(=O)N1CCN(C2c3ccc(Cl)cc3CCc3cc(Br)cnc32)CC1 (some centres unmarked) [EX 21, Step B] | 10 to 10000 nM | 
COCC[C@H]1CN(C2c3ccc(Cl)cc3CCc3cc(Br)cnc32)CCN1C(=O)Cc1cc[n+]([O-])cc1 (some centres unmarked) [Ex 38] | 10 to 10000 nM | IC50 (COS Cells): 0.01 to 10 µM
CNC(=O)CC1CN(C2c3ccc(Cl)cc3CCc3cc(Br)cnc32)CCN1C(=O)Cc1cccnc1 (centres unmarked) [EX 46] | 10 to 10000 nM | 
COCC[C@H]1CN(C2c3ccc(Cl)cc3CCc3cc(Br)cnc32)CCN1C(=O)CC1CCN(C(N)=O)CC1 (some centres unmarked) [EX 39, Step C] | 10 to 10000 nM | pIC50 (Normal Cells): < 4.60; pIC50 (Tumor Cells): > 5.80; pIC50 (COS Cells): 5.00 to 8.00
N[C@@H](CSSC[C@H](N)C(=O)N1CCN(C2c3ccc(Cl)cc3CCc3cc(Br)cnc32)CC1)C(=O)N1CCN(C2c3ccc(Cl)cc3CCc3cc(Br)cnc32)CC1 (some centres unmarked) [EX 20, Step B] | 10 to 10000 nM | 
O=C(Cc1ccncc1)N1CCN(C2c3ccc(Cl)cc3CCc3cc(Br)cnc32)CC1CO (centres unmarked) [EX 50] | 10 to 10000 nM | 
N[C@@H](CS)CN1CCC(=C2c3ccc(Cl)cc3CCc3cc(Br)cnc32)CC1 [EX 56A] |  | pIC50 [1]: < 4.00
CC(C)NC(=O)C1CN(C2c3ccc(Cl)cc3CCc3cc(Br)cnc32)CCN1C(=O)Cc1ccncc1 (centres unmarked) [EX 32-C] | 10 to 10000 nM | 
CNC(=O)C1CN(C2c3ccc(Cl)cc3CCc3cc(Br)cnc32)CCN1C(=O)Cc1cccnc1 (centres unmarked) [EX 32-A] | 10 to 10000 nM | 
